Consider 2 molecules from the NIST ThermoML archive (doi:10.1016/j.tca.2017.10.021).

For the series the following is noted: Crystal, Transpiration method.

Structures are written as SMILES. Numbers after ± are expanded uncertainties.

As usually defined, the vapor or sublimation pressure is the pressure of vapour in equilibrium with the condensed phase. `Cl.N` [ammonium chloride (NH4Cl)]: the “vapor or sublimation pressure” value runs as follows: (463 K) 0.4871 ± 0.02 kPa; (473 K) 0.7748 ± 0.031 kPa; (483 K) 1.14 ± 0.045 kPa; (493 K) 1.683 ± 0.074 kPa; (503 K) 2.758 ± 0.12 kPa; (513 K) 3.639 ± 0.18 kPa. Moreover, where the note is “543 K”, the “vapor or sublimation pressure” value is 11.54 ± 0.52 kPa.

For the molecule `CN.Cl` [methylammonium chloride], the “vapor or sublimation pressure” value (393 K) amounted to 0.0044 ± 0.0003 kPa; the “vapor or sublimation pressure” value (403 K) came out at 0.0085 ± 0.0004 kPa; the “vapor or sublimation pressure” value (413 K) was 0.0171 ± 0.0008 kPa; the “vapor or sublimation pressure” value (423 K) is recorded as 0.0307 ± 0.0015 kPa; the “vapor or sublimation pressure” value (435.5 K) came to 0.0643 ± 0.003 kPa; the “vapor or sublimation pressure” value (455 K) turned out to be 0.1683 ± 0.0068 kPa. Also, the “vapor or sublimation pressure” value runs as follows: (463 K) 0.2868 ± 0.015 kPa; (473 K) 0.4424 ± 0.018 kPa; (483 K) 0.7211 ± 0.043 kPa; (493 K) 1.116 ± 0.057 kPa; (513 K) 2.499 ± 0.098 kPa.
